Here are results for 19 compounds from publication PMC7213079, “Hit Identification of New Potent PqsR Antagonists as Inhibitors of Quorum Sensing in Planktonic and Biofilm Grown Pseudomonas aeruginosa” (Frontiers in Chemistry, 2020).

Format in all cases: cell-based, Pseudomonas aeruginosa
One assay has as its system PAO1-L mCTX::PpqsA-lux. Kind of assay: PpqsA-lux bioreporter assay, strain PAO1-L. The note with it: for IC50 PAO1-L: n = 9, NA = not active at 10 μM; for IC50 / activity at 10 µM: Pseudomonas aeruginosa; for IC50: PAO1, read-out: IC50 PAO1-L; for activity at 10 µM: PAO1, read-out: Remaining Activity % (RA%) at 10 μM PAO1-L. The protocol: In silico virtual screening was performed on the PqsR ligand binding domain (LBD) crystal structure [PDB: 4JVI; (Ilangovan et al., [2013])] using the University of Nottingham Managed Chemical Compound Collection (MCCC) containing 85,061 compounds. Molecular docking was performed using both the OpenEye docking (OpenEye Scientific Software Inc. (Hawkins et al., [2007]) and Schrödinger Suite for molecular modeling (Friesner et al., [2004]; Halgren et al., [2004]). A cut off value of the docking score function was set to -9.0 and the resulting high scoring compounds were further examined (Friesner et al., [2004]; Halgren et al., [2004]). This gave a library of around 500 diverse molecules that were evaluated using in vitro screening in a P. aeruginosa PAO1-L mCTX::PPqsA-lux reporter assay (Diggle et al., [2011]).
(§1) To inform the structural variation of 7, crystal structures with the endogenous ligand [4-hydroxy-2-heptylquinoline (NHQ)] and the inhibitor M64 were used (Ilangovan et al., [2013]; Kitao et al., [2018]). The PqsR LBD is dominated by lipophilic interactions, therefore the current SAR exploration mainly focused on varying the aromatic tail substituents and examining the effect of 8-position substitution. The rationale for these modifications was primarily based on molecular docking studies that provided insights into the mode of binding of 7 and approaches intended to improve potency. The substituent at the para- position of the aromatic ring appeared to be crucial for biological activity due to the vital π-π stacking interaction of this group with Tyr^258. […] These strains emit light upon activation of PqsR by the endogenous production of these signal molecules. […] The results of the SAR in this assay highlight the importance of testing any prospective anti-virulence strategy on multiple genetically distinct P. aeruginosa strains as a means to reduce the chance of failure at both pre-clinical and clinical stages (Freschi et al., [2015]).
(§2) PAO1-L Wild type PAO1, Lausanne subline. B.
PAO1-L mCTX::PpqsA- PAO1-L with chromosomal mini-CTX::PpqsA-lux (Soukarieh lux insertion; TcR et al., 2018) […]
(§3) mini-CTX::PpqsA-lux R6K-based mini-CTX suicide plasmid for the (Diggle et chromosomal insertion of a PpqsA-lux al., 2007) transcriptional reporter fusion; TcR
(§4) Biosensor reporter assay:
(§5) Strains PA14 mCTX::PpqsA-lux and PAO1-L mCTX::PpqsA-lux were constructed using plasmid mini-CTX::PpqsA-lux as previously described (Diggle et al., 2007) and the assay was performed according to published procedures (Fletcher et al., 2007). For screening, the compounds were tested at 10 µM concentration which was prepared from 10 mM stock in DMSO. […]
(A reporter such as luciferase makes a cellular process visible.)

In the next assay the test system is PA14 mCTX::PpqsA-lux. The experiment in a line: PpqsA-lux bioreporter assay, strain PA14. As to conditions: for IC50 PA14: PpqsA-lux bioreporter, n = 9, NA = not active at 10 μM; for IC50: Pseudomonas aeruginosa, PA14, read-out: IC50 PA14.
From the text: as §1, with “[2015]). […]” for “[2015]).”
(§6) PA14 mCTX::PpqsA-lux PA14 with chromosomal mini-CTX::PpqsA-lux (Soukarieh insertion; TcR et al., 2018) […]
as §3, §4, §5

The next assay concerns PA14. The experiment in a line: Pyocyanin quantification, PA14. The note with it: PA14, compound at 3 x IC50, 16 h, compared with the control.
From the text: Pyocyanin is an important virulence factor for P. aeruginosa infections and in particular respiratory and urinary tract infections. Pyocyanin is a redox-active phenazine the production of which is regulated via PqsR and PqsE (Hall et al., [2016]; Rampioni et al., [2016]; Higgins et al., [2018]). Therefore, pyocyanin production serves as an indirect readout of the activity of the pqs QS system. […] Compound 40 reduced pyocyanin production by over 80% in both strains in agreement with bioreporter assay results.
Figure 4 Pyocyanin production by Pseudomonas aeruginosa after treatment with pqs inhibitors 8, 14, 23, 34, 25, 26, and 40. Quantification of pyocyanin production after inhibitor treatment at 3 × IC50 for both PAO1-L and PA14. The graph represents the average of three independent experiments carried out in triplicate (n = 9).
as §2
PAO1-L mCTX::PpqsA- PAO1-L with chromosomal mini-CTX::PpqsA-lux (Soukarieh lux insertion; TcR et al., 2018)
PA14 Wild type UCBPP-PA14 (Rahme et
as §6
Pyocyanin quantification: […]
Pyocyanin pigment was extracted into chloroform by mixing 7.5 mL of supernatant with 4.5 mL of chloroform. Pyocyanin w as further extracted into 1.5 mL of 0.2 M HCL which gave a pink/red solution and the absorbance was measured at 520 nm.

On to `Cn1c2ccccc2c2nnc(SCC(=O)Nc3ccccc3Cl)nc21` [Compound 38, N-(2-Chlorophenyl)-2-((5-methyl-5H-[1,2,4]triazino[5,6-b]indol-3-yl)thio)acetamide], for which the “IC50 PAO1-L” value in the assay on PAO1-L mCTX::PpqsA-lux (PpqsA-lux bioreporter) is “inactive”. Also, the “IC50 PA14” value with PA14 mCTX::PpqsA-lux was “inactive”. Turning to `Cc1ccc(NC(=O)CSc2nnc3c4ccccc4n(C)c3n2)cc1` [Compound 17, 2-((5-Methyl-5H-[1,2,4]triazino[5,6-b]indol-3-yl)thio)-N-(p-tolyl)acetamide], in the assay with PAO1-L mCTX::PpqsA-lux, the IC50 (as a rule, the midpoint of a concentration-inhibition curve) worked out at 1860 ± 10 nM. `Cn1c2ccc(Br)cc2c2nnc(SCC(=O)Nc3ccc(OC(F)(F)F)cc3)nc21` [Compound 22, 2-((8-Bromo-5-methyl-5H-[1,2,4]triazino[5,6-b]indol-3-yl)thio)-N-(4-(trifluoromethoxy)phenyl)acetamide]: the activity at 10 µM in the assay with PAO1-L mCTX::PpqsA-lux was 23%. As for `Cn1c2ccccc2c2nnc(SCC(=O)Nc3ccc(CC#N)cc3)nc21` [Compound 23, N-(4-(Cyanomethyl)phenyl)-2-((5-methyl-5H-[1,2,4]triazino[5,6-b]indol-3-yl)thio)acetamide], the IC50 is 620 ± 100 nM in the assay on PAO1-L mCTX::PpqsA-lux and 2000 ± 170 nM in the assay with PA14 mCTX::PpqsA-lux. The “inhibition of pyocyanin production” value with PA14 was “most potent inhibitor”.

`Cc1ccc(NC(=O)CSc2nnc3c4cc(Br)ccc4n(C)c3n2)cc1` [Compound 18, 2-((8-Bromo-5-methyl-5H-[1,2,4]triazino[5,6-b]indol-3-yl)thio)-N-(p-tolyl)acetamide]: the activity at 10 µM in the assay with PAO1-L mCTX::PpqsA-lux came to 32%. Turning to `Cn1c2ccccc2c2nnc(SCC(=O)Nc3ccc(Cl)cc3)nc21` [Compound 7, N-(4-Chlorophenyl)-2-((5-methyl-5H-[1,2,4]triazino[5,6-b]indol-3-yl)thio)acetamide], the IC50 with PAO1-L mCTX::PpqsA-lux was 980 ± 20 nM. For the same compound, the “IC50 PA14” value with PA14 mCTX::PpqsA-lux was “inactive”. For the compound `Cn1c2ccc(Br)cc2c2nnc(SCC(=O)Nc3ccc(Cl)cc3)nc21` [Compound 8, 2-((8-Bromo-5-methyl-5H-[1,2,4]triazino[5,6-b]indol-3-yl)thio)-N-(4-chlorophenyl)acetamide], the IC50 was 1990 ± 230 nM with PAO1-L mCTX::PpqsA-lux and 1600 ± 160 nM with PA14 mCTX::PpqsA-lux. Take `Cn1c2ccccc2c2nnc(SCC(=O)Nc3ccc(Oc4ncccn4)cc3)nc21` [Compound 28, 2-((5-Methyl-5H-[1,2,4]triazino[5,6-b]indol-3-yl)thio)-N-(4-(pyrimidin-2yloxy)phenyl)acetamide]: the concentration for half-maximal inhibition (IC50) was 1040 ± 120 nM in the assay on PAO1-L mCTX::PpqsA-lux and 1330 ± 330 nM in the assay on PA14 mCTX::PpqsA-lux.

Take `Cn1c2ccc(Br)cc2c2nnc(SCC(=O)Nc3ccccc3Cl)nc21` [Compound 39, 2-((8-Bromo-5-methyl-5H-[1,2,4]triazino[5,6-b]indol-3-yl)thio)-N-(2-chlorophenyl)acetamide]: the “IC50 PAO1-L” value in the assay with PAO1-L mCTX::PpqsA-lux (PpqsA-lux bioreporter) was “inactive”. Besides, the “IC50 PA14” value in the assay with PA14 mCTX::PpqsA-lux is “inactive”. As for `Cn1c2ccccc2c2nnc(SCC(=O)Nc3cccc(Cl)c3)nc21` [Compound 11, N-(3-Chlorophenyl)-2-((5-methyl-5H-[1,2,4]triazino[5,6-b]indol-3-yl)thio)acetamide], the activity at 10 µM in the assay on PAO1-L mCTX::PpqsA-lux is 34%. Also, the “IC50 PA14” value in the assay on PA14 mCTX::PpqsA-lux was “inactive”.

Regarding `Cn1c2ccc(Br)cc2c2nnc(SCC(=O)Nc3ccc(Br)cc3)nc21` [Compound 27, 2-((8-Bromo-5-methyl-5H-[1,2,4]triazino[5,6-b]indol-3-yl)thio)-N-(4-bromophenyl)acetamide], in the assay with PAO1-L mCTX::PpqsA-lux, the IC50 turned out to be 23000 ± 9000 nM. Moreover, the “IC50 PA14” value in the assay with PA14 mCTX::PpqsA-lux is recorded as “inactivity”.

For the compound `Cn1c2ccc(Br)cc2c2nnc(SCC(=O)Nc3ccc(Cl)c(Cl)c3)nc21` [Compound 14, 2-((8-Bromo-5-methyl-5H-[1,2,4]triazino[5,6-b]indol-3-yl)thio)-N-(3,4-dichlorophenyl)acetamide], the figures for the IC50 in the assay on PAO1-L mCTX::PpqsA-lux and in the assay on PA14 mCTX::PpqsA-lux were 3100 ± 520 nM and 7580 ± 820 nM, respectively.

In the case of `Cn1c2ccc(Br)cc2c2nnc(SCC(=O)Nc3cccc(Cl)c3)nc21` [Compound 12, 2-((8-Bromo-5-methyl-5H-[1,2,4]triazino[5,6-b]indol-3-yl)thio)-N-(3-chlorophenyl)acetamide], the activity at 10 µM in the assay on PAO1-L mCTX::PpqsA-lux was 43%. Moreover, the “IC50 PA14” value in the assay on PA14 mCTX::PpqsA-lux was “inactive”. In the case of `Cn1c2ccc(Br)cc2c2nnc(SCC(=O)Nc3ccc(Oc4ccccc4)cc3)nc21` [Compound 25, 2-((8-Bromo-5-methyl-5H-[1,2,4]triazino[5,6-b]indol-3-yl)thio)-N-(4-phenoxyphenyl)acetamide], the IC50 in the assay on PAO1-L mCTX::PpqsA-lux is 4360 ± 420 nM. For `Cn1c2ccc(Br)cc2c2nnc(SCC(=O)Nc3ccc(F)cc3)nc21` [Compound 16, 2-((8-Bromo-5-methyl-5H-[1,2,4]triazino[5,6-b]indol-3-yl)thio)-N-(4-fluorophenyl)acetamide], the IC50 in the assay with PAO1-L mCTX::PpqsA-lux came to 1360 ± 210 nM. Turning to `O=C(CSc1nc2cc([N+](=O)[O-])ccc2[nH]1)Nc1ccc(Oc2ccccc2)cc1` [Compound M64, reference compound], the IC50 was found to be 320 ± 140 nM in the assay with PAO1-L mCTX::PpqsA-lux and 1220 ± 340 nM with PA14 mCTX::PpqsA-lux. For `Cn1c2ccccc2c2nnc(SCC(=O)Nc3ccc(OC(F)(F)F)cc3)nc21` [Compound 21, 2-((5-Methyl-5H-[1,2,4]triazino[5,6-b]indol-3-yl)thio)-N-(4(trifluoromethoxy)phenyl)acetamide], in the assay with PAO1-L mCTX::PpqsA-lux, the activity at 10 µM is 29%. Turning to `Cn1c2ccccc2c2nnc(SCC(=O)Nc3ccc(Oc4ccccc4)cc3)nc21` [Compound 24, 2-((5-Methyl-5H-[1,2,4]triazino[5,6-b]indol-3-yl)thio)-N-(4-phenoxyphenyl)acetamide], the “fold higher activity in PAO1-L compared to 7” value in the assay with PAO1-L mCTX::PpqsA-lux (PpqsA-lux bioreporter) is on record as approximately 2.5 fold. The IC50 amounted to 380 ± 60 nM in the assay on PAO1-L mCTX::PpqsA-lux and 350 ± 60 nM in the assay with PA14 mCTX::PpqsA-lux. As for `Cn1c2ccccc2c2nnc(SCC(=O)Nc3ccc(Br)cc3)nc21` [Compound 26, N-(4-Bromophenyl)-2-((5-methyl-5H-[1,2,4]triazino[5,6-b]indol-3-yl)thio)acetamide], the IC50 in the assay with PAO1-L mCTX::PpqsA-lux was 1710 ± 260 nM; in the assay on PA14 mCTX::PpqsA-lux, 1350 ± 190 nM.
